# Patent publication US20190192522A1, “INHIBITORS OF THE FIBROBLAST GROWTH FACTOR RECEPTOR 4 IN COMBINATION WITH CYCLIN-DEPENDENT KINASE INHIBITORS” (BLUEPRINT MEDICINES CORPORATION, priority 2016, published 2019)
# Key:
# [1] = test system: Huh-7 liver cancer xenograft; assay: Huh-7 liver cancer xenograft efficacy study in female Balb/c nude mice; assay type: in vivo, Mus Musculus; conditions: day eighteen
# Procedure: Each mouse was inoculated subcutaneously at the right flank with tumor cells (5×10^6) in 0.2 ml of PBS supplemented with Matrigel (50:50) for tumor development. The treatments were started on day 11 after tumor inoculation when the average tumor size reached approximately 183 mm^3. Each group consisted of nine tumor-bearing mice.
# Tumor size was measured twice weekly in two dimensions using a caliper, and the volume was expressed in mm^3 using the formula: […]
# where a and b are the long and short diameters of the tumor, respectively. The tumor size was then used to calculate TGI and T/C values.
# TGI was calculated for each group using the formula: […]
# where Ti is the average tumor volume of a treatment group on a given day; T0 is the average tumor volume of the treatment group on the day treatment began; Vi is the average tumor volume of the vehicle control group on the same day Ti was measured, and V0 is the average tumor volume of the vehicle group on the day treatment began. The T/C value (in percent) is an indication of antitumor effectiveness. T and C are the mean volumes of the treated and control groups, respectively, on a given day.
# Summary statistics, including mean and the standard error of the mean (SEM), were provided for the tumor volume of each group at each time point. For tumor volume comparison among more than two groups, a one-way ANOVA was performed. For comparisons between two groups, a t-test was performed. All analysis was run in GraphPad Prism 5.0, with p<0.05 considered to be statistically significant.
# For all groups, at four hours after last dosing, tumor samples were collected in less than one minute after the euthanasia. Four tumors in each group were snap frozen; four tumors were fixed and made into FFPE.
# [2] = test system: LIX-066 human primary hepatocellular carcinoma model; assay: In vivo efficacy study in LIX-066 xenograft model; design: species or system mice; conditions: bid, po, D28
# Procedure: LIX-066 was a human primary hepatocellular carcinoma model from ChemPartner. 130 mice were implanted for this study. Two animals were designated as sentinels; 2 animals were designated as extras.
# Animals were monitored daily by general clinical observation throughout the study period. Body weights were recorded twice weekly before randomization and recorded every day during dosing period and the dose was adjusted per body weight. Tumor areas (length×width) was measured two to three times per week by using digimatic callipers throughout the study period and tumor volumes were calculated based on the following formula: tumor volume=[…]. The tumor volume was then used for calculations of net tumor growth inhibition (TGIn) values. The TGIn (in percent) is the indication of anti-tumor activity. TGIn (%)=[1−avTi-0/avCi-0)]×100; avTi-0 is the average of the tumor volume of each mouse in the treatment group on a specific day minus the tumor volume of each mouse in the treatment group on the first day; avCi-0 is the average of the tumor volume of each mouse in the Vehicle control group on a specific day minus the tumor volume of each mouse in the Vehicle control group on the first day of treatment. Efficacy data was graphically represented as the mean tumor volume±standard error of the mean (SEM).
# Based on about 40% take rate, 50 animals were selected for efficacy study when their tumors reach appropriate size (100-300 mm^3). Five animals were used for plasma PK standard control. All other animals were euthanized. The 50 animals were randomized (blocked randomization/using Excel software) and divided into the following groups for compound administration:
# Group 1: N=10; Vehicle control (PEG400: 20% HP-γ-CD=3:2)
# Group 2: N=10; Compound 1, 30 mg/kg, bid, po
# Group 3: N=10; Compound 1, 100 mg/kg, bid, po […]
# All animals were monitored daily for clinical observation (animal mortality, appearance, spontaneous activity, body posture, and food and water intake. Any lesions and adverse reactions were recorded). […]
# The mice were euthanized and the tumor weights were measured without sampling.
# Hep3B tumor = assay: In vivo efficacy study in Hep3B-FGF19 amplified mice; conditions: Compound 1 monotherapy
# Procedure: (§1) A similar study as described above was carried out using Hep3B-FGF19 amplified mice. Tumor volume results are shown in (FIG. 10A). Compound 1 monotherapy induced Hep3B tumor shrinkage (100% regression, >20% CRs).
# [3] = Tolerability in Hep3B and LIX-066 tumor models; assay type: in vivo
# Procedure: All animals were monitored daily for clinical observation (animal mortality, appearance, spontaneous activity, body posture, and food and water intake. Any lesions and adverse reactions were recorded). Any animals showing signs of debilitation, marked body weight loss (>20%), cachexia or large tumors that would inhibit an animal's ability to eat and drink or mobility were euthanized immediately. Any animals with severely ulcerated, infected or severely hemorrhagic tumors, or tumors whose estimated weight exceed 20% of the body weight were euthanized.
# as §1
# [4] = test system: HCC cell lines with an intact FGFR4 signaling pathway (FGFR4, FGF19, and KLB); conditions: Hagel et al., Cancer Discovery (2015); cited from earlier work
# [5] = Body weight in Huh-7 xenograft study; conditions: palbociclib 90 mg/kg group, day fourteen
# Procedure: Female Balb/c nude mice (Mus Musculus) between six and eight weeks old and weighing 18 to 20 g were used to evaluate the therapeutic efficacy of palbociclib and Compound 1 as monotherapies and in combination in Huh-7 liver cancer xenograft models. The tumor cells were maintained in vitro as a monolayer culture in DMEM medium supplemented with 10% heat inactivated fetal bovine serum at 37° C. in a 5% CO2 atmosphere. The tumor cells were routinely subcultured twice weekly by trypsin-EDTA treatment. The cells growing in an exponential growth phase were harvested and counted for tumor inoculation.
# Palbociclib treated animals were supplied with sunflower seeds to mitigate body weight loss on and after day eight per the sponsor's approval.
structure (smiles),measurement,setting,value
"C=CC(=O)N[C@H]1CCOC[C@H]1Nc1ncc2cc(-c3c(Cl)c(OC)cc(OC)c3Cl)ccc2n1 [Compound 1, N-((3S,4S)-3-((6-(2,6-dichloro-3,5-dimethoxyphenyl)quinazolin-2-yl)amino)tetrahydro-2H-pyran-4-yl)acrylamide]",T/C value,[1]; Compound 1 30 mg/kg bid,57%
same,average tumor size,[1]; Compound 1 30 mg/kg bid,1612 mm^3
same,T/C value,[1]; Compound 1 100 mg/kg bid,24%
same,average tumor size,[1]; Compound 1 100 mg/kg bid,690 mm^3
same,T/C value,[1]; Compound 1 200 mg/kg bid,7%
same,average tumor size,[1]; Compound 1 200 mg/kg bid,198 mm^3
same,average tumor volume,[2]; Compound 1 30 mg/kg,262.87 mm^3
same,average tumor volume,[2]; Compound 1 100 mg/kg,168.03 mm^3
same,average tumor volume,[2]; Compound 1 200 mg/kg,112.22 mm^3
same,CRs,Hep3B tumor,> 20%
same,Hep3B tumor shrinkage (regression),Hep3B tumor,100%
same,tolerability,[3],well tolerated
"C=CC(=O)Nc1cccc(C)c1Nc1ncc2cc(-c3c(Cl)c(OC)cc(OC)c3Cl)ccc2n1 [Compound 2, N-(2-((6-(2,6-dichloro-3,5-dimethoxyphenyl)quinazolin-2-yl)amino)-3-methylphenyl)acrylamide]",proliferation in HCC cell lines,[4],inhibit proliferation
"CC(=O)c1c(C)c2cnc(Nc3ccc(N4CCNCC4)cn3)nc2n(C2CCCC2)c1=O [palbociclib, 6-acetyl-8-cyclopentyl-5-methyl-2-{[5-(1-piperazinyl)-2-pyridinyl]amino}pyrido[2,3-d]pyrimidin-7(8H)-one, reference compound]",T/C value,[1]; palbociclib 45 mg/kg,71%
same,average tumor size,[1]; palbociclib 45 mg/kg,1992 mm^3
same,T/C value,[1]; palbociclib 90 mg/kg,41%
same,average tumor size,[1]; palbociclib 90 mg/kg,1169 mm^3
same,"body weight loss (same animal, euthanized)",[5],> 20%
